Experimental data reported in US20240327364A1, “THERAPEUTIC TARGETING OF GPR68 TO INDUCE FERROPTOSIS” (University Of Maryland, Baltimore, priority 2023, published 2024).

Legend:
HEK293 = type: cell-based
Description: FIG. 59A through FIG. 59D: OGM2 causes specific cell death in glioblastoma cells.
Thus, in contrast to erastin, OGM2 induces ferroptosis selectively in cancer cells.

U87 = assay: MitoTracker / TMRM staining; type: cell-based, human
Description: Lipid peroxidation associated with ferroptosis is known to disrupt mitochondrial membranes, resulting in smaller mitochondria.

HT-29 = assay: Cell Titer-Glo viability, Colorectal adenocarcinoma; type: cell-based; parameters: key to Class: Very Sensitive (LC50<2 μM); Sensitive (LC50=2 to 10 μM); Mildly Sensitive (LC50>10 μM); Refractory (no killing at 10 μM)
Method: OGM2 kills wide variety of cancer cell types. Cell sensitivity can be classified in to Very Sensitive (LC50<2 μM), Sensitive (LC50=2 to 10 μM), Mildly Sensitive (LC50>10 μM), and Refractory (no killing at 10 μM). The listed established cell were incubated with OGM2 at 2 μM or 10 μM for 72 hours under standard cell culture conditions, and relative cell number was assessed using Cell Titer-Glo Luminescent Cell Viability Assay (Promega™) following the manufacturer's instructions. Luminescence was determined using a Cytation 5 reader and Gen5 software package (BioTek™).
Cancer cells, which are very sensitive to killing by OGM2 (LCs <2 μM), with reported mRNA expression of GPR68 and the related proton sensing receptor GPR4. LC50's (concentrations causing 50% lethality) were determined using CellTiter-Glo (Promega™, G7570). Cells were plated in 12-well plates (CELLTREAT Scientific Products, 229112) in 1 ml of DMEM with high glucose, GlutaMAX, HEPES, or RPMI 1640 with Penicillin-Streptomycin (ThermoFisher™, 10564029, 11875119 and 15140122) and 10% FBS. Cells were incubated overnight at 37° C. in 5% CO2. Then 1 mL of fresh media was added with DMSO, OGM, or positive control (Erastin; APExBIO Technology, LLC, B1524) and cells incubated for 3 days. On the third day, all media was removed, cells were rinsed with 1×PBS, PBS was removed, and 200 μL of 1× Passive Lysis Buffer (Promega™, E1941) was added to each well. […]. Subsequently, 20 μL of lysate was added to 100 μL CellTiter-Glo™ reagent on a LUMITRAC 200 plate (Greiner™ bio-one, 82050-726). Plates were briefly spun down and read on a GloMax-Multi Detection System (Promega™).
The cells listed in the tables above were incubated with OGM2 at 2 μM or 10 μM for 72 hours under standard cell culture conditions, and relative cell number was assessed using Cell Titer-Glo Luminescent Cell Viability Assay (Promega™) following the manufacturer's instructions. Luminescence was determined using a Cytation 5 reader and Gen5 software package (BioTek™). RNA expression of GPR68 and GPR4 in the corresponding cancer cell lines are listed, according to the publicly available The Human Protein Atlas version 22.0 and Ensembl version 103.38 (see proteinatlas.org). The consensus normalized expression value (“nTPM”=normalize transcript per million) was calculated as the maximum nTPM value for each gene in the two data sources.

STK39 = target: T1, STK39 (Homo sapiens, UniProt Q9UEW8); assay: KinomeScan; type: binding; conditions: read-out: % Control
T1 construct: purchased DiscoveRx (Fremont, CA)

LPA5 = target: T2, LPA5 (Homo sapiens, UniProt Q9H1C0); assay: GPCR Profiler; type: cell-based
T2 construct: host or cells: Chem-1 cells with promiscuous Gα15
T2 sequence (Q9H1C0 whole entry, species assumed): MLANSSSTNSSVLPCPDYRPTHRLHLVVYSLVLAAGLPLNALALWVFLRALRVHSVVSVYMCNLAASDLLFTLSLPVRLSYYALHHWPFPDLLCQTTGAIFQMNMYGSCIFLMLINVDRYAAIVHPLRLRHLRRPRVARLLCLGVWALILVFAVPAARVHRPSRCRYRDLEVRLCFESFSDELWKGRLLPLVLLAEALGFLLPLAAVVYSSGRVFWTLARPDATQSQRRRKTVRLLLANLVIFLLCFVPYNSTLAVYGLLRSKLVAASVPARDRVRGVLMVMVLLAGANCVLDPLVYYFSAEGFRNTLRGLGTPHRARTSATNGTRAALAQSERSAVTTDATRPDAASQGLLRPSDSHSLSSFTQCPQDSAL

AKT2 = target: T3, AKT2 (Homo sapiens, UniProt P31751); assay: KinomeScan; type: binding; conditions: read-out: % Control
T3 construct: purchased DiscoveRx (Fremont, CA)

5-HT2B = target: T4, 5-HT2B (Homo sapiens, UniProt P41595); assay: GPCR Profiler; type: cell-based
T4 construct: host or cells: Chem-1 cells with promiscuous Gα15
T4 sequence (P41595 whole entry): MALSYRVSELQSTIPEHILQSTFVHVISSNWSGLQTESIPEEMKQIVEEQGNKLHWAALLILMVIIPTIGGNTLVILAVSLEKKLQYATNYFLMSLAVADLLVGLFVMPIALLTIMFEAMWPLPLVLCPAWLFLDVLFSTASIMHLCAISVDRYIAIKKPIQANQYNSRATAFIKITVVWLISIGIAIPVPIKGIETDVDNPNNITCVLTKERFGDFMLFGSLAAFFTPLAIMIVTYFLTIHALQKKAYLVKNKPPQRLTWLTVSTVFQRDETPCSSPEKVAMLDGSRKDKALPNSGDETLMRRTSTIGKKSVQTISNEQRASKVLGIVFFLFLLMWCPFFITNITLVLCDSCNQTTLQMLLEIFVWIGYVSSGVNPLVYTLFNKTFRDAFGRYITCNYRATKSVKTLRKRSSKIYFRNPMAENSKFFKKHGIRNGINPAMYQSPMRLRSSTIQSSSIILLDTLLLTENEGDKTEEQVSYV

ULK2 = target: T5, ULK2 (Homo sapiens, UniProt Q8IYT8); assay: KinomeScan; type: binding; conditions: read-out: % Control
T5 construct: purchased DiscoveRx
T5 sequence (Q8IYT8 whole entry): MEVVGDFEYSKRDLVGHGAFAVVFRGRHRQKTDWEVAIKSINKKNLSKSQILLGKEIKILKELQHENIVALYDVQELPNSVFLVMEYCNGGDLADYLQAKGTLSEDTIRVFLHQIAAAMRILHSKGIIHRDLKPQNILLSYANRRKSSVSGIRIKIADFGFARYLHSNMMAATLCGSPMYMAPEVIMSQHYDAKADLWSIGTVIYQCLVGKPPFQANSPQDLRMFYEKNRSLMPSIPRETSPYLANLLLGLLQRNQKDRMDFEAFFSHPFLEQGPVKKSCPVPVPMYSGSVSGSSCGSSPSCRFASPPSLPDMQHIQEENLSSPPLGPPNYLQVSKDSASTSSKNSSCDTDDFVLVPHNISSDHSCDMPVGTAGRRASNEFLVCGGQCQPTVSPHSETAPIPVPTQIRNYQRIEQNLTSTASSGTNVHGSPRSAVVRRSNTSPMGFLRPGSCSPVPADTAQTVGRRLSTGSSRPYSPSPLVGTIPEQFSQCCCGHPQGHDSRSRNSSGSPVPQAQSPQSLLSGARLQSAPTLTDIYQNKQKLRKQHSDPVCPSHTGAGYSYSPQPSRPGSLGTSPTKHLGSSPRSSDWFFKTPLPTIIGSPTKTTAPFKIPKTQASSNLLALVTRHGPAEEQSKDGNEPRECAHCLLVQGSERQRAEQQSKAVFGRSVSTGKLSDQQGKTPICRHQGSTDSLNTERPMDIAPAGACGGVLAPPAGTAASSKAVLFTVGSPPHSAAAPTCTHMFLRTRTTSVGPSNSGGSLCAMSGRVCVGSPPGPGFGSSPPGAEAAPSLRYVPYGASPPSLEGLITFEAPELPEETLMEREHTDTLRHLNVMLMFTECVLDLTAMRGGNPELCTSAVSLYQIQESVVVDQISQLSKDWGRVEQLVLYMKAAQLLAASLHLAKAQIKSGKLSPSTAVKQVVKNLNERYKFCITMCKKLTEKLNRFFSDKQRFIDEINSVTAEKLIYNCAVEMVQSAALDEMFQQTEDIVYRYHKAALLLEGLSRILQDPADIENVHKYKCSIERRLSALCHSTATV

BB3 = target: T6, BB3 (Homo sapiens, UniProt P32247); assay: GPCR Profiler; type: cell-based
T6 construct: host or cells: Chem-1 cells with promiscuous Gα15
T6 sequence (P32247 whole entry): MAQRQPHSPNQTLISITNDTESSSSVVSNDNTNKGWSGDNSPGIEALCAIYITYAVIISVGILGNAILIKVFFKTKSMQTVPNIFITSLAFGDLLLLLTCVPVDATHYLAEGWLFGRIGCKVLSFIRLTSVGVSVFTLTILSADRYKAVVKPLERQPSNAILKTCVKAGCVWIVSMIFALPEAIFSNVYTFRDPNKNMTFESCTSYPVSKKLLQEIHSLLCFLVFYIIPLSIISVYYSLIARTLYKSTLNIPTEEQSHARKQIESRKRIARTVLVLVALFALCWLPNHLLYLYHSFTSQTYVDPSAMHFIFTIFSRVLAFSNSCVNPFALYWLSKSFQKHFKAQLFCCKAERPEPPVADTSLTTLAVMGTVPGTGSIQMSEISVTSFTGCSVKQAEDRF

CAMK1 = target: T7, CAMK1 (Homo sapiens, UniProt Q14012); assay: KinomeScan; type: binding; conditions: read-out: % Control
T7 construct: purchased DiscoveRx (KinomeScan service)
T7 sequence (Q14012 whole entry): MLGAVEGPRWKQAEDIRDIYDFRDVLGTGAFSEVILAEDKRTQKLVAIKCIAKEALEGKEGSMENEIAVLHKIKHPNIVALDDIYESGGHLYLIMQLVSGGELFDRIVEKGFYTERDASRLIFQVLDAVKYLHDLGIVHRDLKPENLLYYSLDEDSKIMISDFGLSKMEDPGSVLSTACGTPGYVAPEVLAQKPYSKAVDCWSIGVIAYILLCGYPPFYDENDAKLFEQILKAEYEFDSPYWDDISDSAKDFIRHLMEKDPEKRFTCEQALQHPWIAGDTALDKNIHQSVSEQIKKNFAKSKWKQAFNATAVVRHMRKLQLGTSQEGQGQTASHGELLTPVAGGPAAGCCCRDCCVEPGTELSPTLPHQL

BMPR1B = target: T8, BMPR1B (Homo sapiens, UniProt O00238); assay: KinomeScan; type: binding; conditions: read-out: % Control
T8 construct: purchased DiscoveRx (Fremont, CA)

MAP3K3 = target: T9, MAP3K3 (Homo sapiens, UniProt Q99759); assay: KinomeScan; type: binding; conditions: read-out: % Control
T9 construct: purchased DiscoveRx (Fremont, CA)

D1 = target: T10, D1 (Homo sapiens, UniProt P21728); assay: GPCR Profiler; type: cell-based
T10 construct: host or cells: Chem-1 cells with Gα15
T10 sequence (P21728 whole entry): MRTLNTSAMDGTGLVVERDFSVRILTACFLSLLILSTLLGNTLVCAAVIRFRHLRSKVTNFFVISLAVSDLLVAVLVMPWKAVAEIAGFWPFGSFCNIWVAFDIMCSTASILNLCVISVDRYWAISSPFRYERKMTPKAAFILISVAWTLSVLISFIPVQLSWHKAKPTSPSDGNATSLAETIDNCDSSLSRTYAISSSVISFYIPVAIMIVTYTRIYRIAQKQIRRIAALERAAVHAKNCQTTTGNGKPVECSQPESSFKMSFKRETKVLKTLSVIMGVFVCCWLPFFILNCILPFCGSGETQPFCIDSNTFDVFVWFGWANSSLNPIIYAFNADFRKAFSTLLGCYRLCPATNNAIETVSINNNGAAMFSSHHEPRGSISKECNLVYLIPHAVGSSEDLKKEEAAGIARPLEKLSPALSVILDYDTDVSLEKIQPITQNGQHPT

TP = target: T11, TP (Homo sapiens, UniProt P21731); assay: GPCR Profiler; type: cell-based
T11 construct: host or cells: Chem-1 cells with Gα15
T11 sequence (P21731 whole entry): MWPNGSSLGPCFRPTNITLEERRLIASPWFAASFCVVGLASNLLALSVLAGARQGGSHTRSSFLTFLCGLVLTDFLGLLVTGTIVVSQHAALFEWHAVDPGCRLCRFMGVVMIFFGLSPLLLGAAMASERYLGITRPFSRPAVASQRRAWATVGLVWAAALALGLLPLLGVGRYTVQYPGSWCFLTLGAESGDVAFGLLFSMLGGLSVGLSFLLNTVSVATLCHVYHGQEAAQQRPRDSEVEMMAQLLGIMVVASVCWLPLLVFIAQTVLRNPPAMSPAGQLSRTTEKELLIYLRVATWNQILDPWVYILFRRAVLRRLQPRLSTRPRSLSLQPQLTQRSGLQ

PDGFRB = target: T12, PDGFRB (Homo sapiens, UniProt P09619); assay: KinomeScan; type: binding; conditions: read-out: % Control
T12 construct: purchased DiscoveRx (Fremont, CA)

TGFBR2 = target: T13, TGFBR2 (Homo sapiens, UniProt P37173); assay: KinomeScan; type: binding; conditions: read-out: % Control
T13 construct: purchased DiscoveRx (Fremont, CA)

[1] = target: T14, RSK3(Kin.Dom.1-N-terminal) (Homo sapiens, UniProt Q15349); assay: KinomeScan; type: binding; conditions: read-out: % Control
T14 construct: RSK3(Kin.Dom.1-N-terminal); purchased DiscoveRx (Fremont, CA)

ETB = target: T15, ETB (Homo sapiens, UniProt P24530); assay: GPCR Profiler; type: cell-based
T15 construct: host or cells: Chem-1 cells expressing Gα15
T15 sequence (P24530 27-442): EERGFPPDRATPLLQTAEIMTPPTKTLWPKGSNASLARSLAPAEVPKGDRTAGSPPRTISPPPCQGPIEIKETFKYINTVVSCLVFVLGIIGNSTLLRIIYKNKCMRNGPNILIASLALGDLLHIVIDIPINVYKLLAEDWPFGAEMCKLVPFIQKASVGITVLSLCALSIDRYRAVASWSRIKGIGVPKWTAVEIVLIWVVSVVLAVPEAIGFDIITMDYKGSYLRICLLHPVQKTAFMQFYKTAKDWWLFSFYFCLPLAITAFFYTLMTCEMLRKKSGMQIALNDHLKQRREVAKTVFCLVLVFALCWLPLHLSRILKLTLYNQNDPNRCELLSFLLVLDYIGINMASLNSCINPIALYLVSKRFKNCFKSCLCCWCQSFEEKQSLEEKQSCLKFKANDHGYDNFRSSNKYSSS

MKK7 = target: T16, MKK7 (Homo sapiens, UniProt O14733); assay: KinomeScan; type: binding; conditions: read-out: % Control
T16 construct: purchased DiscoveRx
T16 sequence (O14733 whole entry): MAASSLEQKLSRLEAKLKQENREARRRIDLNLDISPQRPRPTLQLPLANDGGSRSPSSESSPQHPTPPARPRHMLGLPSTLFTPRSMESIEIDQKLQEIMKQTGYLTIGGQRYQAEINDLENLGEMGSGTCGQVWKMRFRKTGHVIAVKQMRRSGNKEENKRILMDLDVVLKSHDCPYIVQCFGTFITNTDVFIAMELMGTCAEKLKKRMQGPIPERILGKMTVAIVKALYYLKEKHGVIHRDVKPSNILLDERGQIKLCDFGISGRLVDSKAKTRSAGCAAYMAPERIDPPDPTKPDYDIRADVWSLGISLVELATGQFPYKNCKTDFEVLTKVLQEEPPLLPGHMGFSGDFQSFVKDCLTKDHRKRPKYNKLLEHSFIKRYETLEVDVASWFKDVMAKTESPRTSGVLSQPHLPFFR

EPHA7 = target: T17, EPHA7 (Homo sapiens, UniProt Q15375); assay: KinomeScan; type: binding; conditions: read-out: % Control
T17 construct: purchased DiscoveRx (Fremont, CA)

IRAK4 = target: T18, IRAK4 (Homo sapiens, UniProt Q9NWZ3); assay: KinomeScan; type: binding; conditions: read-out: % Control
T18 construct: purchased DiscoveRx (Fremont, CA)
T18 sequence (Q9NWZ3 whole entry): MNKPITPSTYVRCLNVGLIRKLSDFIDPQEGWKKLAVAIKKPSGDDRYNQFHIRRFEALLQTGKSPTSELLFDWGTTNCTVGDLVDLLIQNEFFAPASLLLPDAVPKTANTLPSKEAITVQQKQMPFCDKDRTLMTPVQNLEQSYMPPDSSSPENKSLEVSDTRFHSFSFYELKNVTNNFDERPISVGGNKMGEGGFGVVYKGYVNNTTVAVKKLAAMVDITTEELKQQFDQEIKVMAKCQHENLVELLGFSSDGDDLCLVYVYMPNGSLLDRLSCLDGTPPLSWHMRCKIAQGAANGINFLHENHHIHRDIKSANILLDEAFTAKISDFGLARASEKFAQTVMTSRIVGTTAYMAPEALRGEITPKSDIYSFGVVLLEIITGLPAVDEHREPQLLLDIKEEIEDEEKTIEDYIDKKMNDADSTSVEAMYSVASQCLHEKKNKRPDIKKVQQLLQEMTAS

PRKCD = target: T19, PRKCD (Homo sapiens, UniProt Q05655); assay: KinomeScan; type: binding; conditions: read-out: % Control
T19 construct: purchased DiscoveRx (Fremont, CA)

In the case of CCc1ccc2c(c1)C1(NN=C(c3ccccc3)S1)C(=O)N2 (stereo not shown) [OGM2], the “HEK293 cell viability / survival” value (HEK293) is reported as “no effect”, the “mitochondrial membrane potential (TMRM)” value (U87) is reported as “decreased mitochondrial membrane potential” and the Class (HT-29) is reported as “Refractory”. The “% Survival 2 μM OGM” value (HT-29; 72 hours) was 102.8%, the “% Survival 10 μM OGM” value (HT-29; 72 hours) was 103.9% and the “LC50 (μM)” value (HT-29; 72 hours) was “No”.

With CCc1ccc2c(c1)C1(NN=C(c3cccc4ccccc34)S1)C(=O)N2 (stereo not shown) [OGM1, 5-ethyl-5′-naphthalen-1-ylspiro[1H-indole-3,2′-3H-1,3,4-thiadiazole]-2-one] the remaining binding at 10 µM (STK39) was 59%, the Antagonism (LPA5; 10 uM) was −16.2 and the Agonism (LPA5; 12.5 uM) was −0.1. For the same compound, the remaining binding at 10 µM (AKT2) was 93%, the Antagonism (5-HT2B; 10 uM) was 0.3 and the Agonism (5-HT2B; 12.5 uM) was −0.1. It also gave a remaining binding at 10 µM (ULK2) of 100%, an Antagonism (BB3; 10 uM) of −0.7 and an Agonism (BB3; 12.5 uM) of 1.3. It also gave a remaining binding at 10 µM (CAMK1) of 50%, a remaining binding at 10 µM (BMPR1B) of 81% and a remaining binding at 10 µM (MAP3K3) of 72%. For the same compound, the Antagonism (D1; 10 uM) was 5, the Agonism (D1; 12.5 uM) was 0 and the Antagonism (TP; 10 uM) was 8.1. For the same compound, the Agonism (TP; 12.5 uM) was 0.2, the remaining binding at 10 µM (PDGFRB) was 72% and the remaining binding at 10 µM (TGFBR2) was 100%. For the same compound, the remaining binding at 10 µM [1] was 100%, the Antagonism (ETB; 10 uM) was −1.6 and the Agonism (ETB; 12.5 uM) was 9.1. It also gave a remaining binding at 10 µM (MKK7) of 99%, a remaining binding at 10 µM (EPHA7) of 100% and a remaining binding at 10 µM (IRAK4) of 88%. For the same compound, the remaining binding at 10 µM (PRKCD) was 100%.
